In PMC7358525, “Characterization of PF-6142, a Novel, Non-Catecholamine Dopamine Receptor D1 Agonist, in Murine and Nonhuman Primate Models of Dopaminergic Activation” (Frontiers in Pharmacology, 2020):

Key:
Format in all cases: in vivo
mouse locomotor activity = assay: Mouse locomotor activity (LMA)
Description: Locomotor activity data were measured by an automated infrared photo-beam system in sound attenuating chambers controlled by Versamax® software, provided by Accuscan Instruments Inc. (Columbus, Ohio), which quantified beam breaks similar to the methods used previously ([Xu et al., 2000]). To test D1 receptor selectivity in a pharmacologic model, C57BL/6J mice were habituated to the apparatus for 90 min, followed by pretreatment with vehicle or SCH-23390 (0.01, 0.032, 0.1 0.32, s.c.) and returned to the apparatus for 30 min. […] Data were compared against the vehicle group using a repeated measures one-way ANOVA with a Dunnett’s post-test. To test D1 receptor selectivity in a genetic model, DRD1a WT and knockout mice (D1 KO) were habituated to the apparatus for 90 min, pretreated with vehicle or SCH-23390 (0.032 mg/kg, s.c.) and returned to the apparatus for 30 min. […] Data were compared within genotype using a two-way ANOVA with a Dunnett’s post-hoc test versus vehicle treated group.

[1] = system: mPFC low frequency delta activity; assay: mPFC low frequency delta field potential oscillation power, anesthetized rat
Description: (§1) Experiments were performed on n=10 adult male Sprague-Dawley rats (275–305 g) under urethane anesthesia (1.5 g/kg, i.p.). The femoral vein was cannulated for i.v. administration of drugs. A stimulation electrode was placed in the CA1/subiculum region (coordinates: A-P = +6.3 mm, M–L = +5.2 mm, D-V = +8.0 mm) using stereotactic methods and unilateral local field potential (LFP) was recorded by a metal monopolar macroelectrode placed into the medial PFC (mPFC; coordinates: A-P = +3.0 mm, M-L = +0.6 mm, D-V = +5.0 mm). […] Evoked responses to the first and the second stimuli were identified (P1 and P2, respectively) and the amount of PPF determined by the formula: (P2 amplitude/P1 amplitude). Waveform averages used to calculate PPF consisted of 60 consecutive stimuli. Five minutes were allowed between administration of each drug dose and the starting of the subsequent average of each 10-min period after each cumulative dose (0.1–1 mg/kg, IV). Disruption in power of LFP delta activity was measured as the percentage of power in low frequency (0–1.8 Hz) irregular activity in the total (0–4 Hz) delta power range. LFP power spectra were determined during periods concurrent with waveform averages and PPF calculation. Statistical significance was determined by means of two-tailed paired Student’s t-test.

[2] = system: MK-801-disrupted paired-pulse facilitation; assay: Paired-pulse facilitation (PPF), CA1/subiculum to mPFC, urethane-anesthetized rat
Description: as §1

[3] = system: acetylcholine levels in the PFC of WT and D1 KO mice; assay: Prefrontal cortex acetylcholine levels via microdialysis, WT and D1 KO mouse; settings: SCH-23390 0.32 mg/kg SC, mice
Text: Adult male Sprague-Dawley rats (280–360 g) were obtained from Charles-River Laboratories, Raleigh, NC and male C57BL/6J DRD1a WT and D1 DA receptor knockout mice (DRD1a-905781) were obtained from The Jackson Laboratories (Bar Harbor, ME). Animals were housed on a 12-h light/dark cycle with free access to food and water and allowed to acclimate for at least 5 d after arrival. Aseptic technique was used during the surgical procedure in order to prevent infection. On the day of the procedure animals were anesthetized with isoflurane (4%) and their heads shaved. The animals were then placed into a Kopf stereotaxic frame, the surgical area disinfected by swabbing with Provodine solution, and the area isolated with a sterile surgical drape. Anesthesia was maintained with isoflurane (2.5%–3%) delivered through a nose cone using a Univentor 400 anesthesia unit. Animals were given a 0.1 ml subcutaneous (s.c.) injection of Metacam (NSAID, meloxicam, 5 mg/ml, Boehringer Ingelheim) as a post-operative analgesic. Marcaine (bupivacaine, 0.5%, Hospira, Lake Forest, IL), a long acting local anesthetic, was administered s.c. at the surgical area to minimize pain and discomfort.
A 1.5–2 cm incision was made along the midline of the skull, beginning from a point just behind the eyes and running posterior. The skin was retracted with hemostats and the skull was further exposed using blunt dissection with cotton swabs. Bleeding capillaries were cauterized, and the skull dried with a sterile gauze sponge.
A microdialysis guide cannula [Bioanalytical Systems Inc (BAS), West Lafayette, IN, part # MD-2251] was placed into a guide holder on the stereotaxic frame and positioned over “Bregma”. The guide cannula was positioned over the PFC (A-P, +3.2 mm; M-L, +0.7 mm, left, relative to bregma) and the location marked on the skull. Using a 0.7 mm burr, a hole was made in the skull at the cannula position. […]
For conventional analysis, ACh was analyzed by high performance liquid chromatography (HPLC) utilizing a modification of the BAS ACh-choline assay kit (BAS part # MF-8910). […]

[4] = system: prepulse inhibition of startle; assay: Mouse prepulse inhibition (PPI) and acoustic startle; settings: risperidone 0.56 mg/kg s.c., C57BL/6J mice
Description: Drug and behaviorally naïve adult male C57BL/6J mice (9–11 weeks of age; n=8 per dose group) were used for PPI experiments. Subjects were tested individually in SR-Lab acoustic startle chambers (San Diego Instruments, San Diego CA, USA) equipped with a restrainer mounted atop a piezoelectric accelerometer which measured transduced movement in response to the presentation of audio stimuli presented through a speaker mounted 20 cm above the animal. Subjects were acclimated to an anteroom adjacent to the testing room at minimum 60 min prior to testing. Test sessions began with a 5 min acclimation period to background noise (65 dB) followed by presentation of six randomized repetitions of the 120 dB startle stimulus (40 ms duration) presented alone or paired in combination with a pre-pulse stimulus of 68, 72, or 74 db (20 msec in duration) presented 80 msec prior to the 120 dB startle stimulus, which was equivalent to +3, +7, and +9 db over background noise, respectively. Data were also recorded for no stimulus values to evaluate background level of response. The inter-trial interval between stimulus presentations was randomized and ranged from 10 to 20 s. Test compounds were administered 30 min (s.c.) prior to testing. […] Percent PPI was calculated for each individual subject as the relative change in the 120 dB startle response in the presence of each prepulse intensity using the formula: 100-((prepulse-pulse)/pulse)*100 as previously described ([Ralph-Williams et al., 2003]).
The experiment was analyzed using a two-way mixed model ANOVA (lme4 library in R software). The model included prepulse stimulus intensity levels, treatment (as all combinations of pre-treatment and treatment), and their interaction as fixed factors and random intercept, random slope for each animal as random factors. […] In order to adjust for multiple hypothesis testing we used false discover rate method which controls the expected proportion of false discoveries among the rejected hypotheses. For all statistical tests, p < 0.05 between groups was considered significant.

[5] = system: conditioned avoidance responding; assay: Rat conditioned avoidance response (CAR)
Description: The CAR assay was performed under similar conditions previously described ([Marquis et al., 2011]) at WuXiAppTec Inc. (Delin Rd. #90, Waigaoquiao Free Trade Zone, Shanghai 200131, China). For this study, adult male Fisher-344 rats were trained and tested in a two-way active avoidance apparatus with MED-PC software (MED Associates, St. Albans, VT, USA).
Briefly, subjects were handled and acclimated to the shuttle boxes for 2 d prior to training sessions. During training sessions, subjects were trained to avoid an electric footshock by moving to the adjacent, non-stimulus side of the shuttle box upon presentation of tone + light stimuli which preceded the presentation of the footshock (0.6 mA, 10 s duration) by 10 s. For this assay an avoidance was defined as moving to the adjacent compartment during the tone+light presentation that preceded the shock, an escape was defined as moving to the adjacent compartment upon presentation of the shock, and an escape failure was defined as a lack of relocation to the adjacent compartment throughout the presentation of the shock. Subjects received 30 trials of training per day for 5 d. Subjects with ≥ 80% avoidance responses on two consecutive days with no escape failures, were considered qualified for testing, and were randomized across treatment groups (n=8–9 per treatment group). […] Avoidance responding was calculated as % of the number of total trials in which an avoidance occurred. Data were calculated for each animal and compared across treatment groups using one-way ANOVA with Dunnett’s post-test versus the vehicle + vehicle treated group.

Structure (SMILES): NC[C@@H]1O[C@H](C23CC4CC(CC(C4)C2)C3)Cc2c1ccc(O)c2O [A-77636, reference compound]
- locomotor activity, five consecutive days of dosing (mouse locomotor activity; 3.2 mg/kg s.c. daily, CD-1 mice): increased locomotor activity

Structure (SMILES): C[C@]12N[C@H](Cc3ccccc31)c1ccccc12 [MK-801]
- low frequency (0-1.8 Hz) irregular delta activity ([1]; MK-801 0.1 mg/kg IV (p=0.01)): significant increase
- increase of P1 response amplitude ([2]; MK-801 0.1 mg/kg IV): 44%
- increase of P2 response amplitude ([2]; MK-801 0.1 mg/kg IV): 10%
- PPF ([2]; MK-801 0.1 mg/kg IV (p=0.04)): significant decrease

Structure (SMILES): CN1CCc2cc(Cl)c(O)cc2[C@@H](c2ccccc2)C1 [SCH-23390, reference compound]
- effect on PF-6142-induced increase in PFC ACh level [3]: attenuated
- mPFC low frequency delta activity ([1]; SCH-23390 0.32 mg/kg IV alone (p=0.19)): no significant effect
- effect on PF-6142-increased activity in WT mice (mouse locomotor activity; SCH-23390 0.032 mg/kg s.c. pretreatment): attenuated
- effect on PF-6142 (10 mg/kg s.c.)-stimulated activity (mouse locomotor activity; SCH-23390 pretreatment 0.01, 0.032, 0.1, 0.32 mg/kg s.c.): blocked
- baseline P1 and P2 response amplitudes ([2]; SCH-23390 0.32 mg/kg IV): no effect
- control PPF ([2]; SCH-23390 0.32 mg/kg IV (p=0.06)): no impact
- effect on PF-6142 (1-3 mg/kg IV) reversal of MK-801 effects on PPF ([2]; SCH-23390 0.32 mg/kg IV pretreatment): block

Structure (SMILES): Cc1nc2n(c(=O)c1CCN1CCC(c3noc4cc(F)ccc34)CC1)CCCC2 [risperidone, reference compound]
- %PPI [4]: produced an increase in %PPI
- mean % avoidance responses ([5]; risperidone 0.1 mg/kg s.c.): 83.33%
- mean % avoidance responses ([5]; risperidone 0.56 mg/kg s.c. (p<0.001)): 6.875%
